{
  "source": "patent US20060025390A1",
  "about": "“Treatment of hormone allergy and related symptoms and disorders” (priority 2004, published 2006)",
  "key": {"[1]": {"test_system": "serum IgG anti-estrogen antibodies", "experiment": "ELISA binding of IgG estrogen antibodies to different hormones in solid phase", "set-up": "species or system human", "conditions": "for IgG binding (optical density): hormone in solid phase, 405 nm; for IgG % reaction: relative to estrogen = 100", "method": "(§1) The ELISA inhibition method was used to determine specificity and cross-reactivity between different hormones and to ensure the degree of human IgG, IgM and IgE estrogen or progesterone binding to estrogen or progesterone in solid phase. […] 100 μl of sera from three different patients with high IgG, IgM or IgE antibodies against 17-α-hydroxyprogesterone was added to all wells. After shaking and incubation for 1 hr at room temperature, addition of enzyme labeled anti-human IgG, IgM or IgE, repeat of incubation, washing, and addition of substrate, color development was measured at 405 nm. Results were calculated as percentage of anti-17-α-hydroxyprogesterone binding to 17-α-hydroxyprogesterone and other hormones. Also, anti-estrogen binding to estrogen and other hormones in solid phase by progesterone in liquid phase was performed and calculated in a similar manner.\n(§2) Human sera containing 17-α-hydroxyprogesterone IgG-, IgM- and IgE-binding antibodies were reacted against progesterone, estrogen, hydrocortisone and cholesterol. In comparison to 100% binding of anti-17-α-hydroxyprogesterone-binding to 17-α-hydroxyprogesterone, the IgG anti-17-α-hydroxyprogesterone-binding to progesterone, estrogen, hydrocortisone and cholesterol was 69-77%, 25-30%, 39-53%, and less than 10% respectively (Table 4). The % binding of serum IgM and IgE anti-17-α-hydroxyprogesterone to 17-1-hydroxyprogesterone, progesterone, estrogen, hydrocortisone and cholesterol was similar to the binding of IgG. This binding of anti-17-α-hydroxyprogesterone to progesterone was the highest, followed by hydrocortisone, then estrogen, to almost no binding with cholesterol. Similar to this, human sera with IgG, IgM and IgE binding antibodies against estrogen were reacted with progesterone, 17-α-hydroxyprogesterone, hydrocortisone and cholesterol, in the presence of estrogen."}, "women with acute asthma": {"test_system": "women with acute asthma", "experiment": "Symptom relief in women with acute asthma after intradermal progesterone (0 to 10 scale)", "assay_type": "in vivo, human", "method": "To test this hypothesis, 142 women with acute asthma were asked to evaluate the severity of their symptoms using an eleven point scale. Ten was assigned to the most severe symptoms, while 0 was assigned to an absence of symptoms. Immediately after assessing their symptoms on this scale, patents were administered 0.5 mg of progesterone by intradermal injection.\nApproximately 15 to 30 seconds after the injection was administered, each patient was asked if their symptoms were worse, better, or unchanged. Each patient was also asked to rate their present symptoms on the same 0 to 10 scale.\nOf the 142 patients tested 129 (91%) positively responded to the treatment. Using the random effects calculations described in Example 2, this correlates to a less than 0.1% chance that the results are random. Thus the results may be considered highly significant.\nHormone samples may be prepared in any way suitable for the intended administration route. For administration through intradermal injection, samples may be prepared as they were in the studies of Examples 2 and 3. Specifically, the progesterone was formulated from commercially available injectable progesterone. Each ml of the final formulation contained […] of progesterone and 10% benzyl alcohol as a preservative in sesame oil. 0.1 ml was administered per patient intradermally. Estrogen samples were similarly prepared."}, "[2]": {"test_system": "serum IgG anti-17-α-hydroxyprogesterone antibodies", "experiment": "ELISA binding of IgG 17-α-hydroxyprogesterone antibodies to different hormones in solid phase", "set-up": "species or system human", "conditions": "for IgG binding (optical density): hormone in solid phase, 405 nm; for IgG % reaction: relative to 17-α-hydroxyprogesterone = 100", "method": "as §1, §2"}, "[3]": {"conditions": "0.5 mg intradermal, acute asthma"}, "[4]": {"conditions": "of 142 women with acute asthma, 0.5 mg intradermal, 15 to 30 seconds after injection"}},
  "data": [
    {"smiles": "CC(=O)[C@H]1CC[C@H]2[C@@H]3CCC4=CC(=O)CC[C@]4(C)[C@H]3CC[C@]12C", "note": "[Progesterone, progesterone]", "values": [
      {"measurement": "IgG binding (optical density)", "setting": "[1]; sample 1", "result": 0.35},
      {"measurement": "IgG % reaction", "setting": "[1]; sample 1", "result": "−29", "unit": "%"},
      {"measurement": "IgG binding (optical density)", "setting": "[1]; sample 2", "result": 0.48},
      {"measurement": "IgG % reaction", "setting": "[1]; sample 2", "result": "−27", "unit": "%"},
      {"measurement": "IgG binding (optical density)", "setting": "[1]; sample 3", "result": 0.32},
      {"measurement": "IgG % reaction", "setting": "[1]; sample 3", "result": "−35", "unit": "%"},
      {"measurement": "average symptomatic relief, patients who reported some response", "setting": "women with acute asthma; 0 to 10 scale", "result": 5, "unit": "points"},
      {"measurement": "average symptomatic relief, all patients", "setting": "women with acute asthma; 0 to 10 scale, responding and not responding patients", "result": 3.4, "unit": "points"},
      {"measurement": "average reduction in symptoms relative to maximum individual patient score", "setting": "women with acute asthma; [3]", "result": 62, "unit": "%"},
      {"measurement": "patients reporting 100% relief of asthma symptoms (%)", "setting": "women with acute asthma; [3]", "result": 28, "unit": "%"},
      {"measurement": "patients reporting 100% relief of asthma symptoms (number)", "setting": "women with acute asthma; [3]", "result": 40},
      {"measurement": "patients who positively responded to the treatment (%)", "setting": "women with acute asthma; [4]", "result": 91, "unit": "%"},
      {"measurement": "patients who positively responded to the treatment (number)", "setting": "women with acute asthma; [4]", "result": 129},
      {"measurement": "IgG anti-17-α-hydroxyprogesterone binding", "setting": "[2]; in comparison to 100% binding to 17-α-hydroxyprogesterone, over three sera", "result": "69-77%"},
      {"measurement": "IgG binding (optical density)", "setting": "[2]; sample 1", "result": 1.1},
      {"measurement": "IgG % reaction", "setting": "[2]; sample 1", "result": "−69", "unit": "%"},
      {"measurement": "IgG binding (optical density)", "setting": "[2]; sample 2", "result": 0.73},
      {"measurement": "IgG % reaction", "setting": "[2]; sample 2", "result": "−77", "unit": "%"},
      {"measurement": "IgG binding (optical density)", "setting": "[2]; sample 3", "result": 0.49},
      {"measurement": "IgG % reaction", "setting": "[2]; sample 3", "result": "−72", "unit": "%"}
    ]}
  ]
}
